Reference: US8426406B2, “Glucocorticoid receptor agonist comprising 2,2,4-trimethyl-6-phenyl-1,2-dihydroquinoline derivatives having substituted oxy group” (Santen Pharmaceutical Co., Ltd., priority 2008, dated 2013)

Experiments:
[1] = test system: allergic conjunctivitis model in mice; assay: Inhibitory effect on the vascular hyper-permeability in allergic conjunctivitis model; format: in vivo; conditions: Mus musculus, 1% (W/V) test compound suspension instilled to the right eye three times before ovalbumin instillation, dye leakage vs vehicle, mean of 5-6 eyes, read-out: The inhibition ratio of the vascular hyper-permeability (%)
Description: In order to evaluate anti-allergic effect, inhibitory effect on the vascular hyper-permeability in allergic conjunctivitis model in mice was examined. This effect was calculated based on dye leakages of vehicle-treated group (control group) and test compound-treated group.
By adding 0.5% polysorbate 80/saline to the test compound, a 1% (W/V) test compound suspension was prepared.
1) Ovalbumin absorbed on aluminum hydroxide gel was dissolved in saline (20 μg ovalbumin/mL), and male BALE/c mice, 6 weeks old, were actively sensitized to the antigen by intraperitoneal injections of 500 μL of it.
2) On the 6th day from sensitization, sensitized mice were boosted by additional intraperitoneal injections of 500 μL ovalbumin absorbed on aluminum hydroxide gel (20 μg ovalbumin/mL).
3) On the 11th day, 12th day, 13th day, 14th day and 15th day from the first sensitization, allergic conjunctivitis were induced by installations to the right eyes of the mice of […] of 50% glycerol solution containing 15% (W/V) ovalbumin.
4) […] of test compound suspension per eye was instilled to the right eye of the above mice 15 min, 1 hr and 3 hrs before ovalbumin instillation (three times) on the 15th day from sensitization. In vehicle-treated group (control group), the mice were instilled with 0.5% polysorbate 80/saline in substitution for test compound suspension.
5) Just before ovalbumin instillation on the 15th day from sensitization, all animals received a tail intravenous injection of 0.1% Evans blue dye. The right periocular tissues of the mice, which were the leaked parts of dye, were collected 30 min after ovalbumin instillation. The dye was extracted from the tissues with the dye extraction liquid. Then the absorbance of the dye extract was measured. The dye leakage was calculated from the absorbance value, and the inhibition ratio of the vascular hyper-permeability of test compound-treated group was calculated according to calculation equation 1. The inhibition ratio of the vascular hyper-permeability of test compound-treated group(%)=(1−Ax/Ao)×100 (Calculation Equation 1) Ao: Dye leakage in vehicle-treated group (control group) Ax: Dye leakage in test compound-treated group (Test Results and Discussion)

[2] = test system: IL-6 production induced by lipopolysaccharide (LPS) in human corneal epithelial cells; assay: Evaluation test for GR agonist activity: inhibition of LPS-induced IL-6 production in human corneal epithelial cells (HCE-T); format: cell-based; conditions: Corneal epithelial cell, 10 μL of 100 μM test compound solution per well, 4 hours incubation, efficacy relative to DEX
Summary of the method: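 SV40-immortalized HCE-T cells were treated with test compound (100 μM solution, stock before dilution into well) plus LPS (1 μg/mL solution, likewise pre-dilution) for 4 hours in 10% FBS-DMEM/F12. IL-6 in supernatants was measured by HTRF. Inhibition was calculated relative to LPS-plus-DMSO and no-LPS controls, and efficacy was expressed as % of DEX inhibition.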

[3] = test system: choroidal neovascularization (CNV) model in rats; assay: Evaluation test for inhibitory effect of choroidal neovascularization (laser induced CNV model in rats); format: in vivo; conditions: Brown Norway rats, 1% (w/v) suspension eye drops four times a day or 20 mg/mL subconjunctival injection (route not given), vs vehicle, mean of 7-8 eyes in 4 rats
Description: The choroidal neovascularization (CNV) model in rats is known as one of the popular methods for evaluating the CNV inhibitory effect of drugs. This method is reported in Graefe's Arch. Cli. Exp. Ophthalmol., 235, 313-319 (1997). According to this method, the CNV examinations were performed to evaluate the CNV inhibitory effect of test compounds by comparing the incidence rates of CNV in vehicle group (control group) with test compound-treated groups.
For eye drop administration, a 1% (w/v) test compound suspension was prepared by adding 0.5% polysorbate 80/saline to the test compound. For subconjunctival injection, a 20 mg/mL test compound suspension was prepared by adding 0.5% hydrogenated castor oil/saline to the test compound.
1) Brown Norway male rats (7-8 weeks, 140-240 g) were anesthetized with intramuscular injection (1 mL/kg) of the mixed solution (5% ketamine HCl: 2% xylazine HCl=7:1).
2) After mydriasis using tropicamide phenylephrine hydrochloride eye drops (trade name Mydrin P), laser photocoagulation of bruch's membrane in rats was performed with krypton laser photocoagulation machine. Laser irradiation was performed at 8-9 points per eye avoiding thick retinal blood vessels in ocular fundus and focusing on the depth of retina. The conditions were 100 μm spot size, 100 mW power, 0.1 second duration.
3) After laser photocoagulation, photographs of ocular fundus were taken and the laser photocoagulation (laser irradiation) points were confirmed.
1) In case of eye drops administration, a test compound suspension was administrated four times a day from laser irradiation day (the 1st day) to the 8th day. In case of subconjunctival injection, a 50 μL test compound suspension was injected into conjunctivae just after laser irradiation.
2) In vehicle group (control group), 0.5% polysorbate 80/saline or 0.5% hydrogenated castor oil/saline was used instead of a test compound suspension. And the test was performed according to the method 1).
1) 7 days after laser irradiation, 0.1 mL of 10% fluorescein was injected into rat tail vein and fluorescein angiography was performed.
2) When the fluorescent leakage was not detected in the fluorescent angiography, the spot was judged to be a negative spot. When the fluorescent leakage was detected, the spot was judged to be a positive spot. When the fluorescent leakage was detected as a little leakage, two spots were counted as one positive spot.
3) The neovascular incidence rate was calculated according to the equation 1. According to the equation 2, the ratio of neovascular incidence rate in test compound group to vehicle group was calculated. Neovascular incidence rate(%)=(Positive spots/all spots)×100 (Equation 1) Angiogenic inhibition ratio in test compound group(%)=(1−Ax/Ao)×100 (Equation 2)
Ao: Neovascular incidence rate in vehicle group (control group)
Ax: Neovascular incidence rate in test compound group

`COc1cc(OC(=O)c2ccccc2Cl)ccc1-c1ccc2c(c1COc1cc(F)ccc1C)C(C)=CC(C)(C)N2` [Compound 1-7, 6-[4-(2-Chlorobenzoyloxy)-2-methoxyphenyl]-5-(5-fluoro-2-methylphenoxymethyl)-2,2,4-trimethyl-1,2-dihydroquinoline] was tested, and the inhibition in vivo at 10000 µg/mL [1] was 28% and the Emax [2] was 78%.
For `CCC(=O)Oc1ccc(OC)c(-c2ccc3c(c2COc2cc(F)ccc2C)C(C)=CC(C)(C)N3)c1` [Compound 1-18, 5-(5-Fluoro-2-methylphenoxymethyl)-6-(2-methoxy-5-propionyloxyphenyl)-2,2,4-trimethyl-1,2-dihydroquinoline], the inhibition in vivo at 10000 µg/mL [1] was 30% and the Emax [2] was 77%.
`COc1ccccc1NCc1c(-c2ccc(OC(=O)c3cccnc3)cc2OC)ccc2c1C(C)=CC(C)(C)N2` [Compound 1-97, 5-(2-Methoxyphenylaminomethyl)-6-[2-methoxy-4-(pyridin-3-ylcarbonyloxy)phenyl]-2,2,4-trimethyl-1,2-dihydroquinoline] was tested, and the inhibition in vivo at 10000 µg/mL [1] was 21% and the Emax [2] was 81%.
In the case of `COc1ccccc1NCc1c(-c2ccc(OC(=O)c3ccncc3)cc2OC)ccc2c1C(C)=CC(C)(C)N2` [Compound 1-102, 5-(2-Methoxyphenylaminomethyl)-6-[2-methoxy-4-(pyridin-4-ylcarbonyloxy)phenyl]-2,2,4-trimethyl-1,2-dihydroquinoline], the inhibition in vivo at 10000 µg/mL [1] is reported as 16% and the Emax [2] is reported as 99%.
For `COc1cc(OC(=O)c2cccnc2)ccc1-c1ccc2c(c1CNc1cc(F)ccc1C)C(C)=CC(C)(C)N2` [Compound 1-105, 5-(5-Fluoro-2-methylphenylaminomethyl)-6-[2-methoxy-4-(pyridin-3-ylcarbonyloxy)phenyl]-2,2,4-trimethyl-1,2-dihydroquinoline], the inhibition in vivo at 10000 µg/mL [1] was 18% and the Emax [2] was 97%.
With `COc1ccccc1C(=O)Oc1ccc(-c2ccc3c(c2COC(=O)c2ccc(C)s2)C(C)=CC(C)(C)N3)c(OC)c1` [Compound 1-136, 6-[2-Methoxy-4-(2-methoxybenzoyloxy)phenyl]-5-(5-methylthiophen-2-ylcarbonyloxymethyl)-2,2,4-trimethyl-1,2-dihydroquinoline] the inhibition in vivo at 10000 µg/mL [1] was 15% and the Emax [2] was 89%.
For `COc1cc(OC(=O)c2cccnc2)ccc1-c1ccc2c(c1COC(=O)c1ccc(C)s1)C(C)=CC(C)(C)N2` [Compound 1-137, 6-[2-Methoxy-4-(pyridin-3-ylcarbonyloxy)phenyl]-5-(5-methylthiophen-2-ylcarbonyloxymethyl)-2,2,4-trimethyl-1,2-dihydroquinoline], the inhibition in vivo at 10000 µg/mL [1] was 26% and the Emax [2] was 83%.
In the case of `COc1cc(OC(=O)c2ccco2)ccc1-c1ccc2c(c1COC(=O)c1ccc(C)s1)C(C)=CC(C)(C)N2` [Compound 1-138, 6-[4-(Furan-2-ylcarbonyloxy)-2-methoxyphenyl]-5-(5-methylthiophen-2-ylcarbonyloxymethyl)-2,2,4-trimethyl-1,2-dihydroquinoline], the inhibition in vivo at 10000 µg/mL [1] is reported as 16% and the Emax [2] is reported as 79%.
In the case of `COc1cc(OC(=O)c2ccccc2Cl)ccc1-c1ccc2c(c1COC(=O)c1ccc(C)s1)C(C)=CC(C)(C)N2` [Compound 1-139, 6-[4-(2-Chlorobenzoyloxy)-2-methoxyphenyl]-5-(5-methylthiophen-2-ylcarbonyloxymethyl)-2,2,4-trimethyl-1,2-dihydroquinoline], the inhibition in vivo at 10000 µg/mL [1] is reported as 15% and the Emax [2] is reported as 104%.
With `COc1cc(OC(=O)N2CCOCC2)ccc1-c1ccc2c(c1COc1cc(F)ccc1C)C(C)=CC(C)(C)N2` [Compound 6-31, 5-(5-Fluoro-2-methylphenoxymethyl)-6-[2-methoxy-4-(morpholin-4-ylcarbonyloxy)phenyl]-2,2,4-trimethyl-1,2-dihydroquinoline] the Emax [2] was 86% and the “Angiogenic inhibition ratio (%)” value [3] was 45%.
For `COc1ccccc1NCc1c(-c2ccc(OC(=O)N3CCOCC3)cc2OC)ccc2c1C(C)=CC(C)(C)N2` [Compound 6-35, 6-[2-Methoxy-4-(morpholin-4-ylcarbonyloxy)phenyl]-5-(2-methoxyphenylaminomethyl)-2,2,4-trimethyl-1,2-dihydroquinoline], the Emax [2] was 87% and the “Angiogenic inhibition ratio (%)” value [3] was 26%.
